The results in this text go back to patent US8865624B2, “Inhibitor for tobacco axillary bud growth and method for inhibiting tobacco axillary bud growth” (SDS Biotech K.K., priority 2010, dated 2014).

Like-named read-outs stand apart in the source and are kept apart here.

In data set [1] the test system is Tobacco Michinoku 1 (burley cultivar) axillary buds. Description: Tobacco axillary bud growth inhibition test, burley cultivar. Type of data set: in vivo. The conditions noted are these: Nicotiana tabacum, 672 h, 28 days after the spraying; for pest or weed control at 0.5 %: concentration of active ingredient 0.5%; for pest or weed control at 0.1 %: concentration of active ingredient 0.1%; for pest or weed control at 2.6 %: concentration of active ingredient 2.6%; for pest or weed control at 0.03 %: concentration of active ingredient 0.03%; for pest or weed control at 0.05 %: concentration of active ingredient 0.05%; for pest or weed control at 0.35 %: concentration of active ingredient 0.35%. As for the experimental part:
(§1) Tobacco seedlings of Tsukuba 1 (flue-cured cultivar) and Michinoku 1 (burley cultivar) were transplanted to 1/5000a Wagner pots filled with Kureha garden nursery soil. The plants were grown in a glasshouse, and the floral axis parts were removed at the time of single-flower bloom of tobacco (top pruning).
(§2) The formulations of the inhibitors for tobacco axillary bud growth obtained in Formulation Examples 1 to 10 above were each diluted with water to predetermined concentrations, and 20 ml of the water-diluted solutions of the respective inhibitors were separately sprayed using a contact-type axillary bud inhibitor spraying instrument equipped with a spot exhaust nozzle (Examples 1 to 11 and 12 to 22). In addition, butralin (trade name: Blue Ribbon) (Comparative Examples 1 and 3) and decyl alcohol (trade name: Contact) (Comparative Examples 2 and 4) were used for tests as comparative examples in the same manner as above. In the cases of both the flue-cured cultivar and burley cultivar, one plant was planted per pot, and the tests were carried out in duplicate.
(§3) For the respective cases, states of inhibition of axillary bud growth 28 days after the spraying were investigated together with untreated groups sprayed with no inhibitor, and axillary bud growth inhibition ratios were calculated by the following equation. Axillary bud growth inhibition ratio=(fresh weight of axillary buds per plant of untreated group−fresh weight of axillary buds per plant of treated group)÷(fresh weight of axillary buds per plant of untreated group)×100 [Math. 1]
(§4) The formulation of Formulation Example 1 (cafenstrole), Formulation Example 2 (thenylchlor) or Formulation Example 10 (propisochlor) above was diluted with water to predetermined concentrations and mixed with decyl alcohol (manufactured by Wako Pure Chemical Industries, Ltd.), 2-ethylhexanol (manufactured by Wako Pure Chemical Industries, Ltd.) or geraniol (manufactured by Wako Pure Chemical Industries, Ltd.) at predetermined concentrations, and the resultant was adjusted and used for tests (Examples 23 to 31 and 32 to 40). In addition, as comparative examples, the formulation of Formulation Example 1, […], or Formulation Example 10 diluted with water to predetermined concentrations (Comparative Examples 5 to 7 and 11 to 13) and decyl alcohol, 2-ethylhexanol or geraniol diluted with water to a predetermined concentration were used for tests (Comparative Examples 8 to 10 and 14 to 16).
(§5) The respective inhibitors were sprayed in the same manner as in Test Example 1, and states of inhibition of axillary bud growth 28 days after the spraying were investigated together with untreated groups sprayed with no inhibitor. Then, axillary bud growth inhibition ratios were calculated.
(§6) The formulation of Formulation Example 11 (cafenstrole), Formulation Example 12 (thenylchlor) or Formulation Example 13 (chlorthal-dimethyl) above was diluted with water to predetermined concentrations, and the resultant was mixed, adjusted and used for tests (Examples 41 to 58 and 59 to 76). In addition, as comparative examples, the formulation of Formulation Example 11, Formulation Example 12 or Formulation Example 13 diluted with water to predetermined concentrations (Comparative Examples 21 to 29 and 34 to 42), butralin (trade name: Blue Ribbon) (Comparative Examples 17, 18, 30, and 31) and decyl alcohol (trade name: Contact) (Comparative Examples 19, 20, 32, and 33) were used for tests in the same manner as above.

In data set [2] the test system is Tobacco Tsukuba 1 (flue-cured cultivar) axillary buds. Description: Tobacco axillary bud growth inhibition test, flue-cured cultivar. The format is in vivo, Nicotiana tabacum. The note with it: for pest or weed control at 0.5 %: concentration of active ingredient 0.5%; for pest or weed control at 0.1 %: concentration of active ingredient 0.1%; for pest or weed control at 0.05 %: concentration of active ingredient 0.05%. As for the experimental part: as §1, §2, §3, §4, §5, §6

The subject of data set [3] is Tobacco Tsukuba 1 (flue-cured cultivar) leaves (first to fourth leaves from the top). Description: Harmful effect of inhibitor on tobacco leaves, flue-cured cultivar. Type of data set: in vivo, Nicotiana tabacum. As for the experimental part: as §1, §2
(§7) Further, the presence or absence of the harmful effect of each inhibitor was evaluated in one of the following four categories depending on the degrees of growth inhibition, gangrene, change in color, deformation and the like of leaves (first to fourth leaves from the top).
(§8) Large: A severely harmful effect was observed.
(§9) Middle: A clearly harmful effect was observed.
(§10) Small: A slightly harmful effect was observed.
(§11) Absent: No harmful effect was observed.
as §6, §5

The subject of data set [4] is Tobacco Michinoku 1 (burley cultivar) leaves (first to fourth leaves from the top). Description: Harmful effect of inhibitor on tobacco leaves, burley cultivar. The format is in vivo, Nicotiana tabacum. As for the experimental part: as §1, §2, §7, §8, §9, §10, §11, §6, §5
Setting [5] is: Table 4, burley cultivar, read-out: Axillary bud growth inhibition ratio.
Where [6] appears, read: Nicotiana tabacum, 672 h, Table 3, flue-cured cultivar, 28 days after the spraying, read-out: Axillary bud growth inhibition ratio.
Where [7] appears, read: Table 1, flue-cured cultivar, concentration of active ingredient 0.1%.
Where [8] appears, read: Table 2, burley cultivar, read-out: Axillary bud growth inhibition ratio.
[9] abbreviates: Table 2, burley cultivar, concentration of active ingredient 0.1%.
[10] abbreviates: Nicotiana tabacum, 672 h, Table 1, flue-cured cultivar, 28 days after the spraying, read-out: Axillary bud growth inhibition ratio.
Setting [11] is: Table 6, burley cultivar, read-out: Axillary bud growth inhibition ratio.
[12] abbreviates: Nicotiana tabacum, 672 h, Table 5, flue-cured cultivar, 28 days after the spraying, read-out: Axillary bud growth inhibition ratio.
Where [13] appears, read: read-out: Axillary bud growth inhibition ratio, Table 6, burley cultivar.
Setting [14] is: Nicotiana tabacum, 672 h, read-out: Axillary bud growth inhibition ratio.

As to `CCCCC(CC)CO` (centres unmarked) [2-Ethylhexanol, 2-ethylhexanol], the pest or weed control at 0.5 % in data set [1] (setting [5]) was determined as 34%; in data set [2] (setting [6]), 21%.

On to `CCc1cccc(C)c1N(C(=O)CCl)C(C)COC` (centres unmarked) [Metolachlor, metolachlor], for which the “Harmful effect of inhibitor” value in data set [3] (setting [7]) and in data set [4] (setting [9]) was “Absent” in each case. Also, the values for the pest or weed control at 0.1 % in data set [1] (setting [8]) and in data set [2] (setting [10]) were 91% and 95%, respectively.

As for `CCCCCCCCCCO` [Decyl alcohol, decyl alcohol], the pest or weed control at 2.6 % in data set [1] (setting [8]) was 92%; in data set [1] (setting [11]), 94%; in data set [2] (Nicotiana tabacum, 672 h, Table 1, flue-cured cultivar, concentration of active ingredient 2.6%, 28 days after the spraying, read-out: Axillary bud growth inhibition ratio), 91%. Besides, the pest or weed control at 0.5 % in data set [1] (setting [5]) was 46%; in data set [2] (setting [6]) it was 42%. Also, the pest or weed control at 0.03 % in data set [1] (setting [11]) was found to be 0%; in data set [2] (Nicotiana tabacum, 672 h, Table 5, flue-cured cultivar, concentration of active ingredient 0.03%, 28 days after the spraying, read-out: Axillary bud growth inhibition ratio), 0%. In data set [2] (Table 5, flue-cured cultivar, concentration of active ingredient 2.6%, 28 days after the spraying), the “Axillary bud growth inhibition ratio” value is 91%.

As to `CC(C)=CCC/C(C)=C/CO` [Geraniol, geraniol], the pest or weed control at 0.5 % in data set [1] (setting [5]) is 28%; in data set [2] (setting [6]), 30%.

Consider `COC(=O)c1c(Cl)c(Cl)c(C(=O)OC)c(Cl)c1Cl` [Chlorthal-dimethyl, chlorthal-dimethyl], for which the “Harmful effect of inhibitor” value in data set [3] (in vivo) and in data set [4] (in vivo) was “Absent” each time. Also, the pest or weed control at 0.05 % in data set [1] (setting [11]) was 39%; in data set [2] (setting [12]), 43%. Also, the pest or weed control at 0.1 % in data set [1] (setting [11]) came to 71%; in data set [2] (setting [12]) it was 78%. The pest or weed control at 0.2 % in data set [1] (Table 6, burley cultivar, concentration of active ingredient 0.2%, read-out: Axillary bud growth inhibition ratio) was 82%; in data set [2] (Nicotiana tabacum, 672 h, Table 5, flue-cured cultivar, concentration of active ingredient 0.2%, 28 days after the spraying, read-out: Axillary bud growth inhibition ratio), 88%.

Take `CCN(C(=O)n1nnn(-c2ccccc2Cl)c1=O)C1CCCCC1` [Fentrazamide, fentrazamide]: the “Harmful effect of inhibitor” value in data set [3] (setting [7]) and in data set [4] (setting [9]) was “Absent” in each case. The results for the pest or weed control at 0.1 % in data set [1] (setting [8]) and in data set [2] (setting [10]) were 92% and 94%, respectively.

As for `CCCCOCN(C(=O)CCl)c1c(CC)cccc1CC` [Butachlor, butachlor], the “Harmful effect of inhibitor” value in data set [3] (in vivo) and in data set [4] (in vivo) was “Absent” each time. Besides, the pest or weed control at 0.1 % came to 96% in data set [1] (setting [8]) and 100% in data set [2] (setting [10]).

On to `CCC(C)Nc1c([N+](=O)[O-])cc(C(C)(C)C)cc1[N+](=O)[O-]` (centres unmarked) [Butralin, butralin], for which the pest or weed control at 0.35 % in data set [1] (read-out: Axillary bud growth inhibition ratio, Table 2, burley cultivar) was 96%; in data set [1] (setting [13]) it was 97%; in data set [2] (setting [14]), 98%. In addition, the figures for the pest or weed control at 0.03 % in data set [1] (setting [13]) and in data set [2] (setting [14]) were 48% and 44%, respectively. Moreover, in data set [2] (Table 5, flue-cured cultivar, concentration of active ingredient 0.35%, 28 days after the spraying), the “Axillary bud growth inhibition ratio” value amounted to 98%.

`COCC(C)N(C(=O)CCl)c1c(C)csc1C` (centres unmarked) [Dimethenamid, dimethenamid]: the “Harmful effect of inhibitor” value in data set [3] (in vivo) and in data set [4] (in vivo) was “Absent” throughout. Also, the results for the pest or weed control at 0.1 % in data set [1] (setting [8]) and in data set [2] (setting [10]) were 94% and 92%, respectively.

Regarding `CCc1cccc(CC)c1N(COC)C(=O)CCl` [Alachlor, alachlor], the “Harmful effect of inhibitor” value in data set [3] (setting [7]) and in data set [4] (setting [9]) was “Absent” throughout. In addition, the pest or weed control at 0.1 % in data set [1] (setting [8]) came out at 91%; in data set [2] (setting [10]) it was 97%.

Turning to `CCC1(CC2(c3cccc(Cl)c3)CO2)C(=O)c2ccccc2C1=O` (centres unmarked) [Indanofan], the “Harmful effect of inhibitor” value in data set [3] (in vivo) and in data set [4] (in vivo) was “Absent” in each case. In addition, the values for the pest or weed control at 0.1 % in data set [1] (setting [8]) and in data set [2] (setting [10]) were 95% and 100%, respectively.

For the compound `COc1ccsc1CN(C(=O)CCl)c1c(C)cccc1C` [Thenylchlor], the “Harmful effect of inhibitor” value in data set [3] (in vivo) and in data set [4] (in vivo) was “Absent” each time. The results for the pest or weed control at 0.1 % in data set [1] (setting [8]) and in data set [2] (setting [10]) were 95% and 96%, respectively. The pest or weed control at 0.05 % in data set [1] (setting [5]) is 70%; in data set [2] (setting [6]), 74%. Besides, the pest or weed control at 0.002 % is 11% in data set [1] (Table 6, burley cultivar, concentration of active ingredient 0.002%, read-out: Axillary bud growth inhibition ratio) and 12% in data set [2] (Nicotiana tabacum, 672 h, Table 5, flue-cured cultivar, concentration of active ingredient 0.002%, 28 days after the spraying, read-out: Axillary bud growth inhibition ratio). Besides, the pest or weed control at 0.005 % in data set [1] (Table 6, burley cultivar, concentration of active ingredient 0.005%, read-out: Axillary bud growth inhibition ratio) came to 22%; in data set [2] (Nicotiana tabacum, 672 h, Table 5, flue-cured cultivar, concentration of active ingredient 0.005%, 28 days after the spraying, read-out: Axillary bud growth inhibition ratio) it was 14%. The pest or weed control at 0.01 % in data set [1] (Table 6, burley cultivar, concentration of active ingredient 0.01%, read-out: Axillary bud growth inhibition ratio) was 28%; in data set [2] (Nicotiana tabacum, 672 h, Table 5, flue-cured cultivar, concentration of active ingredient 0.01%, 28 days after the spraying, read-out: Axillary bud growth inhibition ratio), 22%.
